Laboratory results as given in patent US20240109917A1 (ACTELION PHARMACEUTICALS LTD, priority 2020, published 2024).
Where two headings read alike, the source gives them in different places.

Experiments:
[1] = molecular target: Tb-labeled inactive PDGFRβ (Homo sapiens (Human), UniProt P09619); assay: PDGFRβ LanthaScreen Assay; type: binding; conditions: read-out: PDGFR Lantha IC50
PDGFRβ = PDGFRβ (Rattus norvegicus (Rat), UniProt Q05030); assay: PDGFRβ Cellular Assay (PDGFRb P-Y751 HTRF in A10 cells stimulated with PDGF-BB); type: cell-based
Procedure, shortened: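 Rat A10 cells, plated overnight, were treated with compound for 3 hours, then stimulated with PDGF-BB (working stock 100 ng/mL in 10% FBS medium). After lysis, PDGFRβ P-Y751 was detected by HTRF.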

VEGFR2, unphosphorylated = VEGFR2, unphosphorylated (Homo sapiens (Human), UniProt P35968); assay: VEGFR ADP GLO Assay; type: biochemical
Sequence of VEGFR2, unphosphorylated (P35968 20-1356): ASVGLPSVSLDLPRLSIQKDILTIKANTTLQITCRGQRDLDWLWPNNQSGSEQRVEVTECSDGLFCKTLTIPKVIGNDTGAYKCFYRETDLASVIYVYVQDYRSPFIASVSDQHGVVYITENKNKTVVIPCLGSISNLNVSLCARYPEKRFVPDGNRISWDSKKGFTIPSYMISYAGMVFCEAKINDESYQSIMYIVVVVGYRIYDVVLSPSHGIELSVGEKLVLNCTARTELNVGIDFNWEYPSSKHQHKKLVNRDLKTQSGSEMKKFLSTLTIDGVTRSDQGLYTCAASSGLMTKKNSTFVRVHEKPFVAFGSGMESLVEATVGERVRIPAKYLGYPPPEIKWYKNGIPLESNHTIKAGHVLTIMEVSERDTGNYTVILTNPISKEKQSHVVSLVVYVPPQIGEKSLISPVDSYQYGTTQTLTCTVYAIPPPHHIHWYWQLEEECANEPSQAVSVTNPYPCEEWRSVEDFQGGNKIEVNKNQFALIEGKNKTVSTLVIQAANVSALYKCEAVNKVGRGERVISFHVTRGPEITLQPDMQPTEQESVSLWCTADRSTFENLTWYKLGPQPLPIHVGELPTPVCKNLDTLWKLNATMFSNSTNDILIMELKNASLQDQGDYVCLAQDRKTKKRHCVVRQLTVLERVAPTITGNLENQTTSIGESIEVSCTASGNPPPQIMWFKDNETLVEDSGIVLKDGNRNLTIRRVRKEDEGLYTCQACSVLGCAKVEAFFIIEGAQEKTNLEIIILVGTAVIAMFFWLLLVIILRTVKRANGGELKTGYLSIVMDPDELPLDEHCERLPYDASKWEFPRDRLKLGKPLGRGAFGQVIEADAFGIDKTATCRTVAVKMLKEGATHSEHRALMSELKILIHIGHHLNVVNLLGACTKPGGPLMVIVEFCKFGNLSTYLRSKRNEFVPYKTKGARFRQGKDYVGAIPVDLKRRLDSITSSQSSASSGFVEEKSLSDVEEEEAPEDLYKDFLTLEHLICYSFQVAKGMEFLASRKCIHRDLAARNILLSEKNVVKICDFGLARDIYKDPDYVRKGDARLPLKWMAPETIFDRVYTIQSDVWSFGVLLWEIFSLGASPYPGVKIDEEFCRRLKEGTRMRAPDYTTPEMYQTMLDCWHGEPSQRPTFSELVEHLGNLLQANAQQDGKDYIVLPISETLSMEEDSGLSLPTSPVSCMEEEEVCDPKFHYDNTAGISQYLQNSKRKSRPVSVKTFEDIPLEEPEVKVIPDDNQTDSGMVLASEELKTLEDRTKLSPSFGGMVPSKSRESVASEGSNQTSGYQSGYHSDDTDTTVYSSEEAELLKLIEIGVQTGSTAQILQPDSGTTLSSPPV

Sequence of PDGFRβ (Q05030 32-1097): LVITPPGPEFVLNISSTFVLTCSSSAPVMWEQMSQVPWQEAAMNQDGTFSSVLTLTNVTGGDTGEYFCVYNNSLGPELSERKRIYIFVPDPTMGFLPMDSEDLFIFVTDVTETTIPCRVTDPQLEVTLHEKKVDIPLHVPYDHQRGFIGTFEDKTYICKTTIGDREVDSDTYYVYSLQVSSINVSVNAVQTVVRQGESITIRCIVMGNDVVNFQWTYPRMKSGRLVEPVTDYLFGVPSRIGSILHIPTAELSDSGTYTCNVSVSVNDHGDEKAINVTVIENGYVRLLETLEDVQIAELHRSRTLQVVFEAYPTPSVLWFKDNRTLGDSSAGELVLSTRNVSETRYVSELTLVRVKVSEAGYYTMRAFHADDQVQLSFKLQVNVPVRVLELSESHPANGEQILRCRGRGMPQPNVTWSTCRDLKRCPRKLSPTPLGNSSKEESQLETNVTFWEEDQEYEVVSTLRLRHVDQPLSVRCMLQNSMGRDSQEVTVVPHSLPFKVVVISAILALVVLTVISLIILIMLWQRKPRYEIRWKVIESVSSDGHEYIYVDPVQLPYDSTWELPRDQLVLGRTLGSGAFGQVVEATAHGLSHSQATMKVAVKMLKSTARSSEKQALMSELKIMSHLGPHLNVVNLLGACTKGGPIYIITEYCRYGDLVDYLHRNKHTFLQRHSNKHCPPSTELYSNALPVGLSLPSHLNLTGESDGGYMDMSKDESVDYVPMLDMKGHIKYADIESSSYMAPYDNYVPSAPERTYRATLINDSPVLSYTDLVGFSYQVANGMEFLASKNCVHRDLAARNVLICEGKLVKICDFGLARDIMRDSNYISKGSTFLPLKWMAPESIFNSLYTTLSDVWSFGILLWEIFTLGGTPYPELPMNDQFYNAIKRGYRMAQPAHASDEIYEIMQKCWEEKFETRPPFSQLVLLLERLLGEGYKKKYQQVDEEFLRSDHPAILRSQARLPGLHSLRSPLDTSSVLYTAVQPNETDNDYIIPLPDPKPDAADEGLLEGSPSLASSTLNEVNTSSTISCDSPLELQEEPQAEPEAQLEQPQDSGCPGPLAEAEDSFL
Sequence of Tb-labeled inactive PDGFRβ (P09619 33-1106): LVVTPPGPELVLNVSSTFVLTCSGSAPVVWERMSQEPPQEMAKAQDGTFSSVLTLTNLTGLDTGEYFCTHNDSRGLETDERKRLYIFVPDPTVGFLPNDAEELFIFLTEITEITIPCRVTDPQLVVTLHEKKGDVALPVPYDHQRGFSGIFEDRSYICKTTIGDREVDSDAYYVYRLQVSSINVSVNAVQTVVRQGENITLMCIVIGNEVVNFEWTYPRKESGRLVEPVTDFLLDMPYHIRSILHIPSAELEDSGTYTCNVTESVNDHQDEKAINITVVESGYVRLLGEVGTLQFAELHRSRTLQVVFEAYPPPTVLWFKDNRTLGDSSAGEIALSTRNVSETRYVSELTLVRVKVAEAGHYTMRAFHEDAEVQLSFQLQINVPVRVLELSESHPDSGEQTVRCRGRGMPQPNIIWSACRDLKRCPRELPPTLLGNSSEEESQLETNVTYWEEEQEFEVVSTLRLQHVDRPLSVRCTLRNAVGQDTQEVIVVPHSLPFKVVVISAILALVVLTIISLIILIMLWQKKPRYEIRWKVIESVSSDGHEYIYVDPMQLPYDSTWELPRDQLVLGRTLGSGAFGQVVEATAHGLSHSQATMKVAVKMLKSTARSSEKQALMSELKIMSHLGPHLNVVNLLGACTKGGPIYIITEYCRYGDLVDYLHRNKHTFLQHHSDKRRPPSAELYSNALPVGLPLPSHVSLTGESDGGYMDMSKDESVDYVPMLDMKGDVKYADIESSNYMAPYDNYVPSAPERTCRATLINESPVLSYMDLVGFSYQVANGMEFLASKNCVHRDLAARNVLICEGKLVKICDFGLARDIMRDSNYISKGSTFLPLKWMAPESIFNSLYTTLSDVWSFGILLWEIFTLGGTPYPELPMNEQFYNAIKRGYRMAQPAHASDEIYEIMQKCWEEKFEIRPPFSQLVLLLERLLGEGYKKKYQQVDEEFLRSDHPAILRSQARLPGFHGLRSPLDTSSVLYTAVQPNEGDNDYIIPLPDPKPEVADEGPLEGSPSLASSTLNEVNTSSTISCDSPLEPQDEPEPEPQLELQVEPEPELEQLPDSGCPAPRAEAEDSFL

| SMILES | IC50 [1] [nM] | IC50 (PDGFRβ; PDGFR Cellular IC50) [nM] | IC50 (VEGFR2, unphosphorylated) [nM] | IC50 (PDGFRβ; read-out: PDGFR Cellular IC50) [nM] |
| --- | --- | --- | --- | --- |
| Cc1ncc(NC(=O)C2CCN(C(C)C)C2)cc1NC(=O)c1cnn2cc(-c3cnn(C)c3C)sc12 (stereo not drawn) [Example 356, 2-(1,5-dimethyl-1H-pyrazol-4-yl)-N-(5-(1-isopropylpyrrolidine-3-carboxamido)-2-methylpyridin-3-yl)pyrazolo[5,1-b]thiazole-7-carboxamide] | 17.9 | 74.6 | > 7500 |  |
| Cc1ncc(NC(=O)C2CN(C(C)C)C2)cc1NC(=O)c1cnn2cc(-c3cnn(C)c3C)sc12 [Example 357, 2-(1,5-dimethyl-1H-pyrazol-4-yl)-N-(5-(1-isopropylazetidine-3-carboxamido)-2-methylpyridin-3-yl)pyrazolo[5,1-b]thiazole-7-carboxamide] | 4.5 |  | > 7500 | 56.9 |
| Cc1ncc(NS(=O)(=O)CCN2CC3CCC2CC3)cc1NC(=O)c1cnn2cc(-c3cnn(C)c3)sc12 [Example 358, N-(5-((2-(2-azabicyclo[2.2.2]octan-2-yl)ethyl)sulfonamido)-2-methylpyridin-3-yl)-2-(1-methyl-1H-pyrazol-4-yl)pyrazolo[5,1-b]thiazole-7-carboxamide] | 1840 |  | > 7500 | 941 |
| Cc1ncc(S(=O)(=O)NCCN2CCCC2(C)C)cc1NC(=O)c1cnn2cc(-c3cnn(C)c3)sc12 [Example 359, N-(5-(N-(2-(2,2-dimethylpyrrolidin-1-yl)ethyl)sulfamoyl)-2-methylpyridin-3-yl)-2-(1-methyl-1H-pyrazol-4-yl)pyrazolo[5,1-b]thiazole-7-carboxamide] | 451 |  | > 7500 | 365 |
| COCCCc1cn2ncc(C(=O)Nc3cc(C(=O)NCCN4CCCC4(C)C)cnc3C)c2s1 [Example 360, N-(5-((2-(2,2-dimethylpyrrolidin-1-yl)ethyl)carbamoyl)-2-methylpyridin-3-yl)-2-(3-methoxypropyl)pyrazolo[5,1-b]thiazole-7-carboxamide] | 100 | 59.2 | > 7500 |  |
| COC/C=C/c1cn2ncc(C(=O)Nc3cc(C(=O)NCCN4CCCC4(C)C)cnc3C)c2s1 [Example 361, (E)-N-(5-((2-(2,2-dimethylpyrrolidin-1-yl)ethyl)carbamoyl)-2-methylpyridin-3-yl)-2-(3-methoxyprop-1-en-1-yl)pyrazolo[5,1-b]thiazole-7-carboxamide] | 19 | 14.9 | > 7500 |  |
| Cc1ncc(C(=O)NCCN2CCCC2(C)C)cc1NC(=O)c1cnn2cc(-c3cnn(Cc4cc(OCc5ccccc5)no4)c3)sc12 [Example 362, 2-(1-((3-(benzyloxy)isoxazol-5-yl)methyl)-1H-pyrazol-4-yl)-N-(5-((2-(2,2-dimethylpyrrolidin-1-yl)ethyl)carbamoyl)-2-methylpyridin-3-yl)pyrazolo[5,1-b]thiazole-7-carboxamide] | 4.5 |  | > 2500 | 62.3 |
| Cc1ncc(C(=O)NCCN2CCCC2(C)C)cc1NC(=O)c1cnn2cc(-c3cnn(Cc4cc(O)no4)c3)sc12 [Example 363, N-(5-((2-(2,2-dimethylpyrrolidin-1-yl)ethyl)carbamoyl)-2-methylpyridin-3-yl)-2-(1-((3-hydroxyisoxazol-5-yl)methyl)-1H-pyrazol-4-yl)pyrazolo[5,1-b]thiazole-7-carboxamide] | 14.1 |  | > 7500 | > 2000 |
| Cc1ncc(NC(=O)CN2C[C@H](C)O[C@@H](C)C2)cc1NC(=O)c1cnn2cc(-c3cc[nH]c3)sc12 [Example 365, N-(5-(2-(2,6-trans-dimethylmorpholino)acetamido)-2-methylpyridin-3-yl)-2-(1H-pyrrol-3-yl)pyrazolo[5,1-b]thiazole-7-carboxamide] | 2.4 |  | 596 | 4.8 |
| Cc1ncc(NC(=O)CN2CC3CCC(C2)O3)cc1NC(=O)c1cnn2cc(-c3cc[nH]c3)sc12 [Example 366, N-(5-(2-(8-oxa-3-azabicyclo[3.2.1]octan-3-yl)acetamido)-2-methylpyridin-3-yl)-2-(1H-pyrrol-3-yl)pyrazolo[5,1-b]thiazole-7-carboxamide] | 2.5 |  | 571 | 7.7 |
| COc1ncccc1-c1cn2ncc(C(=O)Nc3cc(NC(=O)CN4CC(C)(C)C4)cnc3C)c2s1 [Example 369, N-(5-(2-(3,3-dimethylazetidin-1-yl)acetamido)-2-methylpyridin-3-yl)-2-(2-methoxypyridin-3-yl)pyrazolo[5,1-b]thiazole-7-carboxamide] | 1.4 |  | > 7500 | 1.6 |
| Cc1ncc(NC(=O)CN2C[C@H](CO)OC(C)(C)C2)cc1NC(=O)c1cnn2cc(-c3cnn(C)c3)sc12 [Example 376, (R)—N-(5-(2-(6-(hydroxymethyl)-2,2-dimethylmorpholino)acetamido)-2-methylpyridin-3-yl)-2-(1-methyl-1H-pyrazol-4-yl)pyrazolo[5,1-b]thiazole-7-carboxamide] | 5.6 |  | > 7500 | 154 |
| Cc1ncc(NC(=O)CN2C[C@@H](CO)OC(C)(C)C2)cc1NC(=O)c1cnn2cc(-c3cnn(C)c3)sc12 [Example 377, (S)—N-(5-(2-(6-(hydroxymethyl)-2,2-dimethylmorpholino)acetamido)-2-methylpyridin-3-yl)-2-(1-methyl-1H-pyrazol-4-yl)pyrazolo[5,1-b]thiazole-7-carboxamide] | 6.2 |  | > 7500 | 119 |
| COc1ncccc1-c1cn2ncc(C(=O)Nc3cc(NC(=O)CN4C[C@H](CO)OC(C)(C)C4)cnc3C)c2s1 [Example 379, (R)—N-(5-(2-(6-(hydroxymethyl)-2,2-dimethylmorpholino)acetamido)-2-methylpyridin-3-yl)-2-(2-methoxypyridin-3-yl)pyrazolo[5,1-b]thiazole-7-carboxamide] | 2.7 |  | > 2500 | 9.2 |
| COc1ncccc1-c1cn2ncc(C(=O)Nc3cc(NC(=O)CN4C[C@@H](CO)OC(C)(C)C4)cnc3C)c2s1 [Example 380, (S)—N-(5-(2-(6-(hydroxymethyl)-2,2-dimethylmorpholino)acetamido)-2-methylpyridin-3-yl)-2-(2-methoxypyridin-3-yl)pyrazolo[5,1-b]thiazole-7-carboxamide] | 3 |  | > 2500 | 9.8 |
| COCC1CN(CC(=O)Nc2cnc(C)c(NC(=O)c3cnn4cc(-c5cnn(C)c5)sc34)c2)CC(C)(C)O1 (stereo not drawn) [Example 383, N-(5-(2-(6-(methoxymethyl)-2,2-dimethylmorpholino)acetamido)-2-methylpyridin-3-yl)-2-(1-methyl-1H-pyrazol-4-yl)pyrazolo[5,1-b]thiazole-7-carboxamide] | 7.8 |  | > 2500 | 15 |
| COc1ncccc1-c1cn2ncc(C(=O)Nc3cc(C(=O)NCCN4CC(C)(C)C4)cnc3C)c2s1 [Example 387, N-(5-((2-(3,3-dimethylazetidin-1-yl)ethyl)carbamoyl)-2-methylpyridin-3-yl)-2-(2-methoxypyridin-3-yl)pyrazolo[5,1-b]thiazole-7-carboxamide] | 1.5 |  | > 7500 | 6.9 |
| CCn1nccc1-c1cn2ncc(C(=O)Nc3cc(NC(=O)CN4CC(C)(C)C4)cnc3C)c2s1 [Example 388, N-(5-(2-(3,3-dimethylazetidin-1-yl)acetamido)-2-methylpyridin-3-yl)-2-(1-ethyl-1H-pyrazol-5-yl)pyrazolo[5,1-b]thiazole-7-carboxamide] | 7.4 |  | > 7500 | 5.1 |
| Cc1cnn(C)c1-c1cn2ncc(C(=O)Nc3cc(NC(=O)CN4CC(C)(C)C4)cnc3C)c2s1 [Example 389, 2-(1,4-dimethyl-1H-pyrazol-5-yl)-N-(5-(2-(3,3-dimethylazetidin-1-yl)acetamido)-2-methylpyridin-3-yl)pyrazolo[5,1-b]thiazole-7-carboxamide] | 7.5 |  | > 7500 | 3.1 |
| Cc1ncc(NC(=O)CN2CC(C)(C)C2)cc1NC(=O)c1cnn2cc(-c3cccnc3C)sc12 [Example 390, N-(5-(2-(3,3-dimethylazetidin-1-yl)acetamido)-2-methylpyridin-3-yl)-2-(2-methylpyridin-3-yl)pyrazolo[5,1-b]thiazole-7-carboxamide] | 10.1 |  | > 7500 | 5.5 |
| CCc1ncccc1-c1cn2ncc(C(=O)Nc3cc(NC(=O)CN4CC(C)(C)C4)cnc3C)c2s1 [Example 391, N-(5-(2-(3,3-dimethylazetidin-1-yl)acetamido)-2-methylpyridin-3-yl)-2-(2-ethylpyridin-3-yl)pyrazolo[5,1-b]thiazole-7-carboxamide] | 18.4 |  | > 7500 | 10.4 |
| COc1ncc(-c2cn3ncc(C(=O)Nc4cc(NC(=O)CN5CC(C)(C)C5)cnc4C)c3s2)c(OC)n1 [Example 392, 2-(2,4-dimethoxypyrimidin-5-yl)-N-(5-(2-(3,3-dimethylazetidin-1-yl)acetamido)-2-methylpyridin-3-yl)pyrazolo[5,1-b]thiazole-7-carboxamide] | 4.6 | 4.8 | 7440 |  |
| COc1cc(-c2cn3ncc(C(=O)Nc4cc(NC(=O)CN5CC(C)(C)C5)cnc4C)c3s2)c(OC)nn1 [Example 393, 2-(3,6-dimethoxypyridazin-4-yl)-N-(5-(2-(3,3-dimethylazetidin-1-1)acetamido)-2-methylpyridin-3-yl)pyrazolo[5,1-b]thiazole-7-carboxamide] | 5.1 |  | > 7500 | 3.5 |
| COc1cccc(-c2cn3ncc(C(=O)Nc4cc(NC(=O)CN5CC(C)(C)C5)cnc4C)c3s2)n1 [Example 394, N-(5-(2-(3,3-dimethylazetidin-1-yl)acetamido)-2-methylpyridin-3-yl)-2-(6-methoxypyridin-2-yl)pyrazolo[5,1-b]thiazole-7-carboxamide] | 1.2 |  | > 7500 | 1.8 |
